Data on 2 compounds can be found in US20220392580A1, “COMPUTATIONAL MODEL TRAINED TO PREDICT INTERACTING PAIRS BASED ON WEAKLY-CORRELATED FEATURES” (Cornell University, priority 2016, published 2022).

Each structure is given as a SMILES string. Where a name gives a salt, the structure may show the parent alone. Where only a bound is given, the exact number is not on record here.

Experiment [1] relates to breast cancer patients. Particulars: recent clinical trials; cited from earlier work.
The test system of experiment [2] is D1-like (DRD1/5) subfamily of dopamine receptors. Particulars: arrestin recruitment GPCR profiling. The procedure: (§1) To test the target prediction, in vitro profiling of GPCR activity using a hetereologous reporter assay for arrestin recruitment, a hallmark of GPCR activation was performed.
For orientation: Arrestin recruitment assays detect the binding of arrestin to an activated receptor.

Experiment [3] concerns D2-like (DRD2/3/4) subfamily of dopamine receptors. Particulars: arrestin recruitment GPCR profiling. The procedure: as §1
Experiment [4] deals with DRD4 (Homo sapiens, UniProt P21917). Particulars: arrestin recruitment GPCR profiling; potency relative to DRD2 and DRD3. The procedure: as §1
DRD4, sequence (P21917 whole entry, canonical isoform): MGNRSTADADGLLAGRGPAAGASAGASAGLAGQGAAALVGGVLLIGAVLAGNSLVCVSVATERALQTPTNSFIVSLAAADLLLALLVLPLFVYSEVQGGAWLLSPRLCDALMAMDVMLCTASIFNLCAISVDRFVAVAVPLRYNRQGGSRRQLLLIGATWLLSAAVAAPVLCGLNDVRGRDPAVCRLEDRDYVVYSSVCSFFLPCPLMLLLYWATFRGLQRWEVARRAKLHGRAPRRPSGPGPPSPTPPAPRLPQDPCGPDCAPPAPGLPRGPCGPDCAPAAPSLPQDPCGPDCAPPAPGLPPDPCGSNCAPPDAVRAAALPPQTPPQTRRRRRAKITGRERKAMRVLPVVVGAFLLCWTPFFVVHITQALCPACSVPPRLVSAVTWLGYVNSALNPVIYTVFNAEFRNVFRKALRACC
Experiment [5] relates to short and long isoforms of DRD2. Particulars: arrestin recruitment GPCR profiling. Here is the method: as §1
Experiment [6] deals with other GPCRs. In words: in vitro profiling of GPCR activity, heterologous reporter assay for arrestin recruitment. It is filed as cell-based. Particulars: under the evaluated conditions. The procedure:
as §1
A general note: A reporter such as luciferase makes a cellular process visible.

The test system of experiment [7] is nuclear hormone receptors. Kind of experiment: interaction profiling.
For experiment [8], the system named is other drug targets of FDA-approved cancer therapies. Kind of experiment: interaction profiling.
The target in experiment [9] is T1, DRD2L (Homo sapiens, UniProt P14416). Particulars: another measure of DRD2L activation.
T1 sequence (P14416 whole entry): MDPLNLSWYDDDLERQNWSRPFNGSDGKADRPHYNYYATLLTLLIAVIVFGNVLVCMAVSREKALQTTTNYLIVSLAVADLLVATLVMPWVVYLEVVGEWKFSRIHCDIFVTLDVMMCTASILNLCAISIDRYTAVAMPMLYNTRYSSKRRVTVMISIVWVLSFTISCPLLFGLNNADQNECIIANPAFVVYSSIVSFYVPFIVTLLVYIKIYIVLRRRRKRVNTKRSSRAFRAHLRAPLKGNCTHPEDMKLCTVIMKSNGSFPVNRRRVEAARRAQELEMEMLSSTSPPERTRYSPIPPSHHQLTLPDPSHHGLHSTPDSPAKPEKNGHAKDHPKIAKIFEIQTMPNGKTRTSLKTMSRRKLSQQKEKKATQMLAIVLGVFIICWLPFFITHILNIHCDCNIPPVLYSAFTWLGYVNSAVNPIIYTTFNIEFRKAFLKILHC
Experiment [10] has as its system the kinome.
In experiment [11] the target is T1, DRD2L. In words: antagonism of arrestin recruitment to DRD2L, Gaddam/Schild EC50 shift analysis. In kind it is cell-based. Also on record: expressed in transfected cells. Particulars: dopamine completely reverses dose-dependent antagonism of up to 100 uM ONC201. The procedure: as §1

For the compound `C=C1C[C@@H]2CC[C@@]34C[C@H]5O[C@H]6[C@@H](O3)[C@H]3O[C@H](CC[C@@H]3O[C@H]6[C@H]5O4)CC(=O)C[C@@H]3[C@@H](OC)[C@@H](C[C@H](O)CN)O[C@H]3C[C@H]3O[C@@H](CC[C@@H]1O2)C[C@@H](C)C3=C` [Eribulin, Eribulin mesylate], the “patients showing any detectable response after treatment” value in experiment [1] is on record as less than 50%.

With `Cc1ccccc1CN1C(=O)C2=C(CCN(Cc3ccccc3)C2)N2CCN=C12` [ONC201], the “antagonism of D1-like dopamine receptors” value in experiment [2] is recorded as “but not D1-like (DRD1/5)”. Further, the “antagonism of D2-like dopamine receptors” value in experiment [3] is listed as “selectively antagonizes”. The “antagonism of DRD4” value in [4] is on record as “weaker potency”. Further, in experiment [5], the “antagonism of DRD2 short and long isoforms” value is recorded as “antagonized”. Further, the “antagonism of other GPCRs” value in experiment [6] is reported as “no observed antagonism”. In [7], the “interactions with nuclear hormone receptors” value was “no significant interactions”. Also, the “interactions with other drug targets of FDA-approved cancer therapies” value in experiment [8] is recorded as “no significant interactions”. Moreover, the “cAMP modulation in response to compound” value in [9] is recorded as “Confirmatory results”. In addition, in experiment [10], the “interactions with the kinome” value is reported as “no significant interactions”. For the same compound, the “mode of antagonism of DRD2L (reversal by dopamine)” value in experiment [11] is given as “direct, competitive antagonism”.
